Activity calls are given as the source filed them.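 The calls were made as follows: active = a fitted half-maximal concentration EC50 for the rise in nuclear signal no higher than ten times the top dose tested; inconclusive = flat fit with activity between 30% and 70%, or unusable fit; inactive = EC50 beyond ten times the top dose.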
Molecular target: Hypoxia-inducible factor 1-alpha (Homo sapiens) (UniProt Q16665)
Experiment: HIF pathway activation, GFP-HIF1alpha translocation – imaging, fluorescence, U2OS GFP-HIF1alpha, confirmation (AID 434951)
Details: U2OS GFP-HIF1alpha nuclear intensity, high-content imaging

Chain of Hypoxia-inducible factor 1-alpha (Homo sapiens) (Q16665 whole entry, looked up): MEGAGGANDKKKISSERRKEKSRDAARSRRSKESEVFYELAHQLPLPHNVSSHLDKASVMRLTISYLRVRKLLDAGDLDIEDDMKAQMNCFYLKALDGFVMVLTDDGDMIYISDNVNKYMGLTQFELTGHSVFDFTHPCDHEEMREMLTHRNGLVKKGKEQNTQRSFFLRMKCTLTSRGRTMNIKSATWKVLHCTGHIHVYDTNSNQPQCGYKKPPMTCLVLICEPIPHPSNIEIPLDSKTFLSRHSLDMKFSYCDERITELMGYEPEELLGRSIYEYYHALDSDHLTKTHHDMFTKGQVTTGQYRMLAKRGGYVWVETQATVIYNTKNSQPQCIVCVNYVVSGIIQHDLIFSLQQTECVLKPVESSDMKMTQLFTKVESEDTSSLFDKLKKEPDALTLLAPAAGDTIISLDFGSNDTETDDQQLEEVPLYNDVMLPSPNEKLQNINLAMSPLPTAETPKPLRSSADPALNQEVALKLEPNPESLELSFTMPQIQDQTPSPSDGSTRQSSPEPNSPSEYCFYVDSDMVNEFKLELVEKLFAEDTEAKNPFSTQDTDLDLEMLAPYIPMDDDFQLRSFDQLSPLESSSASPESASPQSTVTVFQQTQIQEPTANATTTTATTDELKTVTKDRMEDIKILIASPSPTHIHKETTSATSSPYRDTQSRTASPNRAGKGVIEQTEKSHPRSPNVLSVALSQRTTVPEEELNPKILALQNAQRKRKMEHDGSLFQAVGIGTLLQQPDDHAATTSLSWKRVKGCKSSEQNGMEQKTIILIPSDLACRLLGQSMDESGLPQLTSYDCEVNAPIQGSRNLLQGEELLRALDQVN

Row | SMILES | EC50
1 | COc1cc(C2CC(=O)N3CN(Cc4ccccc4)CSC3=C2C#N)ccc1OCc1ccccc1 (stereo not drawn) | > 35 µM (inactive)
2 | CCOC(=O)c1c(S(=O)(=O)N2CCC(C)CC2)c(C)n(C)c1C | > 35 µM (inactive)
3 | COc1ccc(OC)c2sc(N3CCN(C(=O)c4ccc5ncsc5c4)CC3)nc12 | > 35 µM (inactive)
4 | CC1CN(c2nc3ccccn3c(=O)c2/C=C(\C#N)C(=O)N2CCOCC2)CC(C)O1 (stereo not drawn) | > 35 µM (inactive)
5 | COc1ccc(CC(NC(C)=O)C(=O)NC2CCN(C(=O)Nc3ccc(Cl)cc3)CC2)cc1OC (stereo not drawn) | > 35 µM (inactive)
6 | COc1ccc(CC(=O)Nc2cccc(-c3nnc(-c4ccccc4)o3)c2)cc1OC | > 35 µM (inactive)
7 | S=C(Nc1ccc(Cl)cc1)Nc1ccc2cn[nH]c2c1 | > 35 µM (inactive)
8 | CN1CCN(C2Cc3ccc(F)cc3Sc3cc(F)c(Cl)cc32)CC1 (stereo not drawn) | > 35 µM (inactive)
9 | COc1ccc(N2CCN(C(=O)CN(C)S(=O)(=O)c3cc(C)ccc3OC)CC2)cc1 | > 35 µM (inactive)
10 | CCC(C)NCCOc1ccc(C)cc1[N+](=O)[O-] (stereo not drawn) | > 35 µM (inactive)
11 | O=C(Nc1ccccc1O)c1ccc(NC(=O)C2CC2)cc1 | 10.8 µM
12 | CCCCCCCCCS(=O)(=O)N/N=C/c1cccc([N+](=O)[O-])c1 | > 35 µM (inactive)
13 | COc1ccc(NC(=O)CNC(=O)Cc2cccc3ccccc23)c(OC)c1 | > 35 µM (inactive)
14 | Oc1c(N=Nc2ccccn2)ccc2ccccc12 | 3.98 µM
15 | Cn1c(SCC(=O)Nc2ccccc2)nnc1-c1ccc(NC(=O)CCc2ccccc2)cc1 | > 35 µM (inactive)
16 | CCOC(=O)c1c(-c2ccccc2)oc2cc(CN(C)C)c(O)c(CN(C)C)c12 | 5.53 µM
17 | CC1(C)CC(NC(=O)CCC2CCCC2)CC(C)(C)N1 | > 35 µM (inactive)
18 | O=[N+]([O-])c1cccnc1N/N=C/c1ccccc1O | 34.5 µM
19 | Cc1cc2ccc3ccccc3c2cc1CN(C)C | > 35 µM (inactive)
20 | CCCCn1c(=O)c2c(O)cc(=O)oc2c2ccccc21 | > 35 µM (inactive)
21 | COc1ccc(Cc2nnc(SCC(=O)NC3CCCCC3)n2C)cc1 | > 35 µM (inactive)
22 | Cc1nnc(-c2ccccc2)c(=O)n1/N=C/c1c(O)ccc2ccccc12 | 8.4 µM
23 | [O-]/C(=C(\C(=S)Nc1cccc2ccccc12)[n+]1ccccc1)c1cccs1 | > 35 µM (inactive)
24 | Cc1nc([N+](=O)[O-])c(Br)n1Cc1ccc(Cl)c(Cl)c1 | > 35 µM (inactive)
25 | CCOc1ccc(/C=N/NC(=O)c2[nH]ncc2Br)c(O)c1 | 10.2 µM
26 | CN(/N=C/c1c[nH]c2ccccc12)c1cnn(-c2ccc(F)c(Cl)c2)c(=O)c1Cl | > 35 µM (inactive)

Row | SMILES | EC50
27 | COC(=O)C1=Nc2ccccc2/C1=C\c1c(O)n(-c2cc(OC)ccc2OC)c(=O)[nH]c1=O | > 35 µM (inactive)
28 | O=C(N/N=C/c1cc2cc3c(cc2nc1Cl)OCO3)c1ccncc1 | > 35 µM (inactive)
29 | COc1ccc(C(NC(=O)c2cccnc2)c2cc(Cl)c3cccnc3c2O)cc1OC (stereo not drawn) | 7.09 µM
30 | Cc1ccsc1C(=O)N/N=C/c1ccc([N+](=O)[O-])cc1 | > 35 µM (inactive)
31 | CCOC(=O)c1ccc(S(=O)(=O)NNC(=O)COc2ccccc2C)cc1 | > 35 µM (inactive)
32 | CCOCCCNC(=S)Nc1cc(C)cc(C)c1 | > 35 µM (inactive)
33 | COC(=O)c1ccc(C(C(=O)NCc2ccccc2)N(Cc2ccco2)C(=O)c2cnccn2)cc1 (stereo not drawn) | > 35 µM (inactive)
34 | CC(=O)Nc1sc(-c2ccccc2)nc1-c1ccccc1 | > 35 µM (inactive)
35 | CCCCN(C(=O)c1c(C)[nH]c(C(=O)OCC)c1C)c1ccccc1 | > 35 µM (inactive)
36 | CCN1/C(=C/c2ccc3cc(C)ccc3[n+]2CC)Sc2ccccc21 | 13.1 µM
37 | CCOC(=O)N1CCN(C(=O)c2ccc(Cn3c(=S)[nH]c4cc(OCC)c(OCC)cc4c3=O)cc2)CC1 | 5.64 µM
38 | COc1ccc(CNS(=O)(=O)c2cc3c4c(c2)C(C)C(=O)N4CCC3)cc1 (stereo not drawn) | > 35 µM (inactive)
39 | O=C(NCCSc1c[nH]c2ccccc12)c1ccc(Br)o1 | > 35 µM (inactive)
40 | Oc1cccc(C(Nc2nccs2)c2ccc3cccnc3c2O)c1 (stereo not drawn) | 6.93 µM
41 | COc1ccc(-n2c(C)cc(C(=O)CCl)c2C)cc1 | 12.4 µM
42 | O=C1CN(c2ccccc2)C(=O)N1 | > 35 µM (inactive)
43 | O=C(N/N=C/c1cc(Br)ccc1O)c1ccncc1 | > 35 µM (inactive)
44 | CC1CCN(C(=O)CS(=O)(=O)Cc2ccccc2)CC1 | > 35 µM (inactive)
45 | Cc1cccc(CCNC(=O)Cn2ncc3c([nH]c4ccc(C)cc43)c2=O)c1 | > 35 µM (inactive)
46 | CCc1nc(N2CCN(C(=O)c3ccco3)CC2)c2c3c(sc2n1)CCCC3 | > 35 µM (inactive)
47 | CC1(C)Cc2c(C#N)c(SCCC#N)nc(N3CCOCC3)c2CO1 | > 35 µM (inactive)
48 | S=c1[nH]nc(-c2ccco2)n1/N=C/c1cccs1 | > 35 µM (inactive)
49 | CN(C)C=NC(=O)c1cn(-c2ccc(F)cc2)c(=O)c2ccccc12 | > 35 µM (inactive)
50 | COc1cccc(/C=N\NC(=O)Cn2nnc3ccccc32)c1O | > 35 µM (inactive)
51 | Cc1cccc(C(=O)O/N=C(\N)c2ccc(Cl)cc2)c1 | > 35 µM (inactive)
52 | Cc1ccccc1-n1c(=O)n(Cc2ccc(C(=O)O)cc2)c(=O)c2[nH]cnc21 | > 35 µM (inactive)

Row | SMILES | EC50
53 | Cc1ccc(CNc2ccc3c(c2)nc(C)n3C)cc1 | > 35 µM (inactive)
54 | Cc1cc(C)c2sc(NNC(=O)c3ccc(S(=O)(=O)N4CCc5ccccc5C4)cc3)nc2c1 | 10.5 µM
55 | CCOc1cc(N2CCOCC2)c(OCC)cc1NC(C)C(=O)N1CCC(C)CC1 (stereo not drawn) | > 35 µM (inactive)
56 | Cc1cccc(C)c1Nc1c(-c2ccccn2)nc2ccccn12 | 3.28 µM
57 | COc1cccc(/C=N/NC(=O)c2ccc([N+](=O)[O-])cc2Cl)c1O | > 35 µM (inactive)
58 | CC(=O)NC(c1cccc([N+](=O)[O-])c1)c1ccc2cccnc2c1O (stereo not drawn) | 10.7 µM
59 | Cc1c(Cl)cccc1NC(=S)N/N=C/c1ccccc1Cl | 14.8 µM
60 | COc1ccc(NC(=O)CSc2ncnc3[nH]ncc23)cc1 | > 35 µM (inactive)
61 | CCOc1ccccc1N(CC(=O)N/N=C/c1cc(Br)ccc1OC)S(C)(=O)=O | > 35 µM (inactive)
62 | Cc1ccn2cc(-c3ccc(O)c(O)c3)nc2c1 | > 35 µM (inactive)
63 | COc1ccc(N/N=C(/N=Nc2nc(C)cc(=O)[nH]2)c2ccccc2)cc1 | 0.856 µM
64 | CCCOc1cccc(C2C(C(=O)c3ccco3)=C(O)C(=O)N2CCCn2ccnc2)c1 (stereo not drawn) | > 35 µM (inactive)
65 | ONC=Nc1cccc2nonc12 | > 35 µM (inactive)
66 | COc1ccc2c(c1)c(C(=O)CN1CCc3ccccc3C1)c(C)n2C | > 35 µM (inactive)
67 | O=C1NC(=O)/C(=C/c2ccc(OS(=O)(=O)c3ccc(F)cc3F)cc2)N1 | > 35 µM (inactive)
68 | COCCNC(=O)C(=O)NCC1OCCN1S(=O)(=O)c1cc(F)ccc1F (stereo not drawn) | > 35 µM (inactive)
69 | CCCNC(=S)N1CCCC(c2nc3ccccc3[nH]2)C1 (stereo not drawn) | > 35 µM (inactive)
70 | CCN(CC)c1ccc(/C=N/NC(=O)c2cccc(S(=O)(=O)Nc3ccccc3OC)c2)c(O)c1 | 0.838 µM
71 | O=C(N/N=C\c1c(O)ccc2ccccc12)c1ccc(Cn2cccn2)o1 | 5.3 µM
72 | CCn1c(C)nc2cc(C(=O)N/N=C/c3cccc(O)c3O)ccc21 | 24.6 µM
73 | Cc1cc(C)c2nc(N3CCN(C(=O)c4ccco4)CC3)sc2c1 | > 35 µM (inactive)
74 | Oc1ccccc1C(Nc1nccs1)c1ccc2cccnc2c1O (stereo not drawn) | 6.57 µM
75 | COc1cnc(-c2ccccn2)nc1N(C)C | 5.92 µM
76 | Cc1onc(-c2c(Cl)cccc2Cl)c1C(=O)N=C(N)N1CCCC1 | > 35 µM (inactive)
77 | FC(F)(F)c1ccc(-c2nc(=S)[nH][nH]2)cc1 | > 35 µM (inactive)
78 | O=C(c1ccc(Cl)cc1Cl)N1CCN(c2ccc(N3CCOCC3)nn2)CC1 | > 35 µM (inactive)

Row | SMILES | EC50
79 | O=C1CCCC(O)=C1C=Nc1cccc(C(F)(F)F)c1 | > 35 µM (inactive)
80 | Cc1ccc(C2=NS(=O)(=O)N(C)C(C(=O)NC3CCCC3)=C2)cc1 | > 35 µM (inactive)
81 | Cc1cc(/C=N/n2c(COc3ccccc3)nc3ccccc3c2=O)c(O)c([N+](=O)[O-])c1 | 24.5 µM
82 | CC1=NC(C#N)=C(C#N)NC(C)(C)C1 | > 35 µM (inactive)
83 | CCCN(CCC)C(=S)Nc1cc(C(=O)OC)ccc1C(=O)OC | > 35 µM (inactive)
84 | C/C(=N\NC(=O)c1cc(-c2cccnc2)nc2ccccc12)c1ccccc1O | 21.9 µM
85 | O=S(=O)(/C=C/c1ccccc1)N1CCNCC1 | > 35 µM (inactive)
86 | CCCC(=O)NC(c1ccc(C(C)C)cc1)c1ccc2cccnc2c1O (stereo not drawn) | 2.1 µM
87 | Oc1ccc(Cl)cc1CNCC1CCCO1 (stereo not drawn) | > 35 µM (inactive)
88 | CCOc1ccc(NC(=O)COc2ccccc2)c([N+](=O)[O-])c1 | > 35 µM (inactive)
89 | O=C(N/N=C/c1cc([N+](=O)[O-])ccc1O)c1cccc2cc[nH]c12 | 20.8 µM
90 | COC(=O)/C(=C(/F)SCC(C)=O)C(F)(F)F | > 35 µM (inactive)
91 | O=C(CC1SC(N2CCCC2)=NC1=O)Nc1ccc(C(=O)Nc2ncccc2O)cc1 (stereo not drawn) | 29.7 µM
92 | COc1ccc(OC)c(CNC(=O)C2CCCN(S(=O)(=O)N3CCC(C)CC3)C2)c1 (stereo not drawn) | > 35 µM (inactive)
93 | C=CCc1cccc(/C=N/NC(=O)c2ccc3nc[nH]c3c2)c1O | 34.6 µM
94 | CC1CN/C(=C\C(=O)c2ccc(Br)cc2)C(=O)N1 (stereo not drawn) | > 35 µM (inactive)
95 | CC(Oc1ccc2ccc(=O)oc2c1)C(=O)NCCN1CCOCC1 (stereo not drawn) | > 35 µM (inactive)
96 | CC(C)=CCSc1nnc([C@@H](N)Cc2c[nH]c3ccccc23)o1 | > 35 µM (inactive)
97 | COc1ccc(N2CCN(C(=O)C3COc4ccccc4O3)CC2)cc1 (stereo not drawn) | > 35 µM (inactive)
98 | CCCC1CCC(=C(C#N)C(N)=O)CC1 (stereo not drawn) | > 35 µM (inactive)
99 | COC(=O)c1cc(S(=O)(=O)NCc2ccccc2OC)cn1C | > 35 µM (inactive)
100 | COc1ccc(O)c(/C=N/NC(=S)Nc2cccc(S(=O)(=O)N(C)C)c2)c1 | > 35 µM (inactive)
101 | CCN(CC)c1ccc(NC(=O)Cn2nnc(-c3cccc(OC)c3OC)n2)c(C)c1 | > 35 µM (inactive)
102 | Cc1cccc(N2CCN(c3ccc(N4C(=O)CCCC4=O)cc3[N+](=O)[O-])CC2C)c1 (stereo not drawn) | > 35 µM (inactive)
103 | O=C(COc1ccccc1)N(Cc1cccc(F)c1)C1CCS(=O)(=O)C1 (stereo not drawn) | > 35 µM (inactive)
